Source: patent publication US8829027B2, “Urea derivatives of substituted nortropanes, medicaments containing such compounds and their use” (Boehringer Ingelheim International GmbH, priority 2008, dated 2014)

Target: T1, 11β-HSD1 (Homo sapiens, UniProt P28845)
T1 construct: detecting cortisol generated from cortisterone by human liver microsomes; from tissue; host or cells: human liver microsomes
Assay: In vitro inhibition of 11β-HSD1, HTRF detection of cortisol generated from cortisone by human liver microsomes
Assay type: biochemical
Details: compound concentration 1 μM, 100% indicates no inhibition, zero or below zero indicates complete inhibition
Experimental: Briefly, compounds are incubated for 1 hour at 37° C. in Tris buffer (20 mM tris, 5 mM EDTA, pH 6.0) containing NADPH (200 μM) and cortisone (80 nM). Cortisol generated in the reaction is then detected with a competitive immunoassay, involving two HTRF conjugates: cortisol linked to XL665 and anti-cortisol antibody labeled with Europium cryptate. The incubation period for detection reaction is typically 2 hours. The amount of cortisol is determined by reading the time-resolved fluorescence of the wells (Ex 320/75 nm; Em 615/8.5 nm and 665/7.5 nm). The ratio of the two emission signals is then calculated (Em665*10000/Em615). […] Each assay also contains a calibration curve with cortisol to transform the fluorescent data into cortisol concentrations. Percent inhibition (% CTL) of each compound is determined relative to the carbenoxolone signal and IC50 curves are generated.
The % CTL values of some example compounds at a concentration of 1 μM are provided in the following Table 2 wherein 100% indicates no inhibition and a value of zero or below zero indicates complete inhibition. The measurement of % CTL is described hereinbefore.

T1 sequence (P28845 whole entry): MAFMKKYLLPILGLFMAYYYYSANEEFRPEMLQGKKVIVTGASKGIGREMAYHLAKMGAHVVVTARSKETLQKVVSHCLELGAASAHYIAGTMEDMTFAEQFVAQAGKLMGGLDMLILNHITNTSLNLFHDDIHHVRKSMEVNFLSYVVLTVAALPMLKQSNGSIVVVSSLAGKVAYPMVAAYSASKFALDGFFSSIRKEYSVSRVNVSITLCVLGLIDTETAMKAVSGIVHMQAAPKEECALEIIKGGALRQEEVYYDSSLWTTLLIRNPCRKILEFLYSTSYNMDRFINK

SMILES	11β-HSD1 remaining activity (% of control)
O=C(N1CCCCC1)N1[C@@H]2CC[C@H]1C[C@@H](c1ccc(F)cc1)C2 [Example 1, endo-[3-(4-Fluoro-phenyl)-8-aza-bicyclo[3.2.1]oct-8-yl]-piperidin-1-yl-methanone]	−49 % CTL
O=C(N1CCCC1)N1[C@@H]2CC[C@H]1C[C@@H](c1ccc(F)cc1)C2 [Example 2, endo-[3-(4-Fluoro-phenyl)-8-aza-bicyclo[3.2.1]oct-8-yl]-pyrrolidin-1-yl-methanone]	−3 % CTL
O=C(N1CCOCC1)N1[C@@H]2CC[C@H]1C[C@@H](c1ccc(F)cc1)C2 [Example 3, endo-[3-(4-Fluoro-phenyl)-8-aza-bicyclo[3.2.1]oct-8-yl]-morpholin-4-yl-methanone]	−29 % CTL
CC(=O)NC1CCN(C(=O)N2[C@@H]3CC[C@H]2C[C@@H](c2ccc(F)cc2)C3)CC1 [Example 4, endo-N-{1-[3-(4-Fluoro-phenyl)-8-aza-bicyclo[3.2.1]octane-8-carbonyl]-piperidin-4-yl}-acetamide]	46 % CTL
O=C(N1CCC(O)CC1)N1[C@@H]2CC[C@H]1C[C@@H](c1ccc(F)cc1)C2 [Example 5, endo-[3-(4-Fluoro-phenyl)-8-aza-bicyclo[3.2.1]oct-8-yl]-(4-hydroxy-piperidin-1-yl)-methanone]	−46 % CTL
O=C(N1CCc2nc[nH]c2C1)N1[C@@H]2CC[C@H]1C[C@@H](c1ccc(F)cc1)C2 [Example 6, endo-[3-(4-Fluoro-phenyl)-8-aza-bicyclo[3.2.1]oct-8-yl]-(3,4,6,7-tetrahydro-imidazo[4,5-c]pyridin-5-yl)-methanone]	65 % CTL
O=C(N1CCc2sccc2C1)N1[C@@H]2CC[C@H]1C[C@@H](c1ccc(F)cc1)C2 [Example 7, endo-(6,7-Dihydro-4H-thieno[3,2-c]pyridin-5-yl)-[3-(4-fluoro-phenyl)-8-aza-bicyclo[3.2.1]oct-8-yl]-methanone]	−57 % CTL
O=C(N1[C@@H]2CC[C@H]1C[C@@H](O)C2)N1[C@@H]2CC[C@H]1C[C@@H](c1ccc(F)cc1)C2 [Example 8, [endo-3-(4-Fluoro-phenyl)-8-aza-bicyclo[3.2.1]oct-8-yl]-(endo-3-hydroxy-8-aza-bicyclo[3.2.1]oct-8-yl)-methanone]	−59 % CTL
NC(=O)C1CCN(C(=O)N2[C@@H]3CC[C@H]2C[C@@H](c2ccc(F)cc2)C3)CC1 [Example 9, endo-1-[3-(4-Fluoro-phenyl)-8-aza-bicyclo[3.2.1]octane-8-carbonyl]-piperidine-4-carboxylic acid amide]	−49 % CTL
O=C(O)C1CCN(C(=O)N2[C@@H]3CC[C@H]2C[C@@H](c2ccc(F)cc2)C3)CC1 [Example 11, endo-1-[3-(4-Fluoro-phenyl)-8-aza-bicyclo[3.2.1]octane-8-carbonyl]-piperidine-4-carboxylic acid]	4 % CTL
N#CC1CCN(C(=O)N2[C@@H]3CC[C@H]2C[C@@H](c2ccc(F)cc2)C3)CC1 [Example 12, endo-1-[3-(4-Fluoro-phenyl)-8-aza-bicyclo[3.2.1]octane-8-carbonyl]-piperidine-4-carbonitrile]	−27 % CTL
COC1CCN(C(=O)N2[C@@H]3CC[C@H]2C[C@@H](c2ccc(F)cc2)C3)CC1 [Example 13, endo-[3-(4-Fluoro-phenyl)-8-aza-bicyclo[3.2.1]oct-8-yl]-(4-methoxy-piperidin-1-yl)-methanone]	−25 % CTL
O=C(N1CCC(O)(C(F)(F)F)CC1)N1[C@@H]2CC[C@H]1C[C@@H](c1ccc(F)cc1)C2 [Example 14, endo-[3-(4-Fluoro-phenyl)-8-aza-bicyclo[3.2.1]oct-8-yl]-(4-hydroxy-4-trifluoromethyl-piperidin-1-yl)-methanone]	−30 % CTL
COC(=O)C1CCN(C(=O)N2[C@@H]3CC[C@H]2C[C@@H](c2ccc(F)cc2)C3)CC1 [Example 15, endo-1-[3-(4-Fluoro-phenyl)-8-aza-bicyclo[3.2.1]octane-8-carbonyl]-piperidine-4-carboxylic acid methyl ester]	20 % CTL
CC1(O)CCN(C(=O)N2[C@@H]3CC[C@H]2C[C@@H](c2ccc(F)cc2)C3)CC1 [Example 16, endo-[3-(4-Fluoro-phenyl)-8-aza-bicyclo[3.2.1]oct-8-yl]-(4-hydroxy-4-methyl-piperidin-1-yl)-methanone]	−23 % CTL
O=C(N1C2CCC1CC(O)(C(F)(F)F)C2)N1[C@@H]2CC[C@H]1C[C@@H](c1ccc(F)cc1)C2 (stereo partly drawn) [Example 17, endo-[3-(4-Fluoro-phenyl)-8-aza-bicyclo[3.2.1]oct-8-yl]-(3-hydroxy-3-trifluoromethyl-8-aza-bicyclo[3.2.1]oct-8-yl)-methanone]	−11 % CTL
O=C(N1CCCC2(CCCNC2=O)C1)N1[C@@H]2CC[C@H]1C[C@@H](c1ccc(F)cc1)C2 (stereo partly drawn) [Example 18, endo-8-[3-(4-Fluoro-phenyl)-8-aza-bicyclo[3.2.1]octane-8-carbonyl]-2,8-diaza-spiro[5.5]undecan-1-one]	62 % CTL
O=C(N1CCCC2(CCNC2=O)C1)N1[C@@H]2CC[C@H]1C[C@@H](c1ccc(F)cc1)C2 (stereo partly drawn) [Example 19, endo-7-[3-(4-Fluoro-phenyl)-8-aza-bicyclo[3.2.1]octane-8-carbonyl]-2,7-diaza-spiro[4.5]decan-1-one]	34 % CTL
O=C(N1CCCC(CO)C1)N1[C@@H]2CC[C@H]1C[C@@H](c1ccc(F)cc1)C2 (stereo partly drawn) [Example 20, endo-[3-(4-Fluoro-phenyl)-8-aza-bicyclo[3.2.1]oct-8-yl]-(3-hydroxymethyl-piperidin-1-yl)-methanone]	−17 % CTL
O=C(N1CCC(CO)CC1)N1[C@@H]2CC[C@H]1C[C@@H](c1ccc(F)cc1)C2 [Example 21, endo-[3-(4-Fluoro-phenyl)-8-aza-bicyclo[3.2.1]oct-8-yl]-(4-hydroxymethyl-piperidin-1-yl)-methanone]	−20 % CTL
CC(C)(O)C1CCN(C(=O)N2[C@@H]3CC[C@H]2C[C@@H](c2ccc(F)cc2)C3)CC1 [Example 22, endo-[3-(4-Fluoro-phenyl)-8-aza-bicyclo[3.2.1]oct-8-yl]-[4-(1-hydroxy-1-methyl-ethyl)-piperidin-1-yl]-methanone]	−18 % CTL
